Laboratory results as given in US20240309043A1, “THERAPEUTICALLY ACTIVE STEROIDAL DERIVATIVES” (Organon R&D Finland Ltd., priority 2017, published 2024).

Legend:
[1] = molecular target: T1, recombinant human 17β-HSD1 (Homo sapiens, UniProt P14061); assay: Inhibition of recombinant human 17β-HSD1; type: biochemical; conditions: inhibitor 100 nM; 30 nM estrone, 1 mM NADPH, 30 min RT
T1 construct: made in house; host or cells: Sd9 (Sf9) insect cells, baculovirus (Bac to Bac Expression System)
T1 sequence (P14061 1-328): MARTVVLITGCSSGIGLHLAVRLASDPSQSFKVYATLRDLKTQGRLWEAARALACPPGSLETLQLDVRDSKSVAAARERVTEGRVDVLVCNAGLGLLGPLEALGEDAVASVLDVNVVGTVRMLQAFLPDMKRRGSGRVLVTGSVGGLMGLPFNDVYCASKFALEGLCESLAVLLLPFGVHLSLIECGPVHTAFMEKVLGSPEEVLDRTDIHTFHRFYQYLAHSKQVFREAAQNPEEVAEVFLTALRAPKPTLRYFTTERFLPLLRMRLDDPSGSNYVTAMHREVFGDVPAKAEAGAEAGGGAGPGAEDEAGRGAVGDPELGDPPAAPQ
Procedure, shortened: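 Microsomes from Sf9 cells expressing human 17β-HSD1 (1 μg/ml) were incubated for 30 min at RT in 20 mM KH2PO4 pH 7.4 with 30 nM ³H-estrone, 1 mM NADPH and inhibitor at 1 μM or 0.1 μM (1% DMSO). Estrone-to-estradiol conversion was measured by radio-HPLC after TCA stop, and % inhibition was taken as 100 − % conversion.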

[2] = molecular target: T2, recombinant human 17β-HSD2 (Homo sapiens, UniProt P37059); assay: Inhibition of recombinant human 17β-HSD2; type: biochemical; conditions: inhibitor 1 μM; 50 nM estradiol, 1 mM NADH, 30 min RT
T2 construct: made in house; host or cells: Sd9 (Sf9) insect cells, baculovirus (Bac to Bac Expression System)
T2 sequence (P37059 1-387): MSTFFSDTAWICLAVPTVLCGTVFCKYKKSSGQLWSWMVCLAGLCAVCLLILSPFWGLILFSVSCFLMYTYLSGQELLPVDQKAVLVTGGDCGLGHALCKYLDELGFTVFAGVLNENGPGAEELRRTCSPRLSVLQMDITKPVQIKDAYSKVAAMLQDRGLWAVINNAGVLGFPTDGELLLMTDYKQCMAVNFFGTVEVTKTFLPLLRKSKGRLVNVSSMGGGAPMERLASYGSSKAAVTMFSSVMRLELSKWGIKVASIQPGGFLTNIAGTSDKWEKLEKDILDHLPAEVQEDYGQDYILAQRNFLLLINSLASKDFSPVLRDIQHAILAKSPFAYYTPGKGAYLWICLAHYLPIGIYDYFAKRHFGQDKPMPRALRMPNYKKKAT
Procedure, shortened: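 Sf9 baculovirus-expressed enzyme membrane extract (4 μg/ml) incubated 30 min at RT in 20 mM KH2PO4 pH 8.5 with 50 nM estradiol (³H-tracer) and 1 mM NADH, inhibitor at 1 μM or 0.1 μM, 1% DMSO. TCA-stopped; estradiol-to-estrone conversion by radio-HPLC, % inhibition = 100 − % conversion.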

[3] = system: HSD1 enzyme that is expressed in rabbit placenta tissue; assay: Inhibition of E1 to E2 conversion in rabbit placenta tissue homogenate; type: biochemical; conditions: inhibitor 100 nM, 30 nM estrone, 30 min
[4] = system: human hepatocytes; assay: Metabolic stability assay, human hepatocyte incubations; type: in vitro ADME; conditions: 37° C., 0-60 min, half life
Method: The in vitro metabolic stability of the compounds of the invention was determined for exemplified compounds using human hepatocyte incubations. Study compounds were incubated 0, 10, 20, 40 and 60 min at 37° C. Samples were collected at all time points and compounds were detected by LC-MS/MS analysis. The percent compound remaining is calculated by comparing the peak area of the parent compound at each time point to time zero. In vitro metabolic stability was determined as half life (T½), which was determined by regression analysis of the percent parent disappearance vs. time curve. The results are summarized in Table2.

Row | SMILES | inhibition at 0.1 µM [1] [%] | inhibition at 1 µM [2] [%] | Rabbit placenta inhibition % @100 nM [3] [%] | Human hepatocytes MetStab T1_2 min [4] [min]
1 | C[C@]12CCC3c4ccccc4CCC3C1[C@H](CCC(=O)Nc1ccc(F)cn1)C/C2=N\O (stereo partly drawn) [Compound 98, N-(5-fluoropyridin-2-yl)-3-((13S,15R,E)-17-(hydroxyimino)-13-methyl-7,8,9,11,12,13,14,15,16,17-decahydro-6H-cyclopenta[a]phenanthren-15-yl)propanamide] | 60 | 0 | 4 | 28
2 | COc1ccnc(NC(=O)CC[C@@H]2C/C(=N\O)[C@@]3(C)CCC4c5ccccc5CCC4C23)c1 (stereo partly drawn) [Compound 106, 3-((13S,15R,E)-17-(hydroxyimino)-13-methyl-7,8,9,11,12,13,14,15,16,17-decahydro-6H-cyclopenta[a]phenanthren-15-yl)-N-(4-methoxypyridin-2-yl)propanamide] | 76 | 2 | 5 | 31
3 | Cc1cnc(NC(=O)CC[C@@H]2C/C(=N\O)[C@@]3(C)CCC4c5ccccc5CCC4C23)o1 (stereo partly drawn) [Compound 108, 3-((13S,15R,E)-17-(hydroxyimino)-13-methyl-7,8,9,11,12,13,14,15,16,17-decahydro-6H-cyclopenta[a]phenanthren-15-yl)-N-(5-methyloxazol-2-yl)propanamide] | 54 | 5 | 20 | 21
4 | Cc1cc(NC(=O)CC[C@@H]2C/C(=N\O)[C@@]3(C)CCC4c5ccccc5CCC4C23)no1 (stereo partly drawn) [Compound 110] | 33 | -4 | 35 | 26
5 | CC(C)c1ccc(NC(=O)CC[C@@H]2C/C(=N\O)[C@@]3(C)CCC4c5cccc(F)c5CCC4C23)nc1 (stereo partly drawn) [Compound 112, 3-((13S,15R,E)-4-fluoro-17-(hydroxyimino)-13-methyl-7,8,9,11,12,13,14,15,16,17-decahydro-6H-cyclopenta[a]phenanthren-15-yl)-N-(5-isopropylpyridin-2-yl)propanamide] | 96 | 7 | 67 | 29
6 | C[C@]12CCC3c4cccc(F)c4CCC3C1[C@H](CCC(=O)Nc1ccc(N3CCOCC3)cn1)C/C2=N\O (stereo partly drawn) [Compound 114, 3-((13S,15R,E)-4-fluoro-17-(hydroxyimino)-13-methyl-7,8,9,11,12,13,14,15,16,17-decahydro-6H-cyclopenta[a]phenanthren-15-yl)-N-(5-morpholinopyridin-2-yl)propanamide] | 100 | 7 | 75 | 40
